≈ marks a conversion by molar mass, not a printed value.
Columns and labels:
Type in all cases: cell-based
E. coli ATCC25922 = test: Bacterial growth minimal inhibitory concentration (CLSI broth microdilution); details: quinolone-sensitive strain, cation-adjusted Mueller-Hinton Broth; for MIC: Escherichia coli, ATCC25922
Summary of the method: (§1)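 Compounds were serially diluted in cation-adjusted Mueller-Hinton broth, then inoculated with the test strain following the CLSI M7-A7 microdilution standard. The lowest inhibitory concentration is reported as MIC in mg/L.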

K. pneumoniae A-651 = test: as above; details: multiply resistant strain (in particular quinolone-resistant), cation-adjusted Mueller-Hinton Broth; for MIC: Klebsiella pneumoniae, A651
Summary of the method: as §1

P. aeruginosa ATCC27853 = test: as above; details: quinolone-sensitive strain, cation-adjusted Mueller-Hinton Broth; for MIC: Pseudomonas aeruginosa, ATCC27853
Summary of the method: as §1

wild-type E. coli A-1261 = test: MIC of prodrug with or without alkaline phosphatase or esterase
Protocol: Minimal Inhibitory Concentrations (MICs; mg/L) were determined in cation-adjusted Mueller-Hinton Broth by a microdilution method following the description given in “Methods for Dilution Antimicrobial Susceptibility Tests for Bacteria that Grow Aerobically”, Approved standard, 7th ed., Clinical and Laboratory Standards Institute (CLSI) Document M7-A7, Wayne, Pa., USA (2006).
The compound of Example 86 was tested against wild-type E. coli A-1261 in the absence of alkaline phosphatase or esterase, in the presence of an alkaline phosphatase and in the presence of an esterase. The corresponding antibacterial test results are given in Table 2 hereafter (MICs in mg/L).

SMILES	MIC (E. coli ATCC25922) [µg/mL]	MIC (K. pneumoniae A-651) [µg/mL]	MIC (P. aeruginosa ATCC27853) [µg/mL]	further results
C[C@@](CCN1Cc2cc(C#Cc3ccc(CN4CC[C@H](O)[C@H](F)C4)cc3)cn2C1=O)(C(=O)NO)S(C)(=O)=O (relative stereo) [Example 42, (2R)-4-(6-((4-(((3R*,4S*)-3-fluoro-4-hydroxypiperidin-1-yl)methyl)phenyl)ethynyl)-3-oxo-1H-pyrrolo[1,2-c]imidazol-2(3H)-yl)-N-hydroxy-2-methyl-2-(methylsulfonyl)butanamide]	0.5 (≈ 0.915 µM)	1 (≈ 1.83 µM)	2 (≈ 3.66 µM)	
C[C@@](CCN1Cc2cc(C#CC#CCN3CCC(O)CC3)cn2C1=O)(C(=O)NO)S(C)(=O)=O [Example 40, (2R)—N-hydroxy-4-(6-(5-(4-hydroxypiperidin-1-yl)penta-1,3-diyn-1-yl)-3-oxo-1H-pyrrolo[1,2-c]imidazol-2(3H)-yl)-2-methyl-2-(methylsulfonyl)butanamide]	2 (≈ 4.2 µM)	2 (≈ 4.2 µM)	2 (≈ 4.2 µM)	
CN1CC(F)(C#CC#Cc2cc3n(c2)C(=O)N(CC[C@](C)(C(=O)NO)S(C)(=O)=O)C3)C1 [Example 33, (2R)-4-(6-((3-fluoro-1-methylazetidin-3-yl)buta-1,3-diyn-1-yl)-3-oxo-1H-pyrrolo[1,2-c]imidazol-2(3H)-yl)-N-hydroxy-2-methyl-2-(methylsulfonyl)butanamide]	0.25 (≈ 0.555 µM)	0.25 (≈ 0.555 µM)	2 (≈ 4.44 µM)	
C[C@@](CCN1Cc2cc(C#CC#CC3CN(CCO)C3)cn2C1=O)(C(=O)NOC(=O)CCc1ccccc1OP(=O)(O)O)S(C)(=O)=O [Example 86, (2R)-2-(3-((4-(6-((1-(2-hydroxyethyl)azetidin-3-yl)buta-1,3-diyn-1-yl)-3-oxo-1H-pyrrolo[1,2-c]imidazol-2(3H)-yl)-2-methyl-2-(methylsulfonyl)butanamido)oxy)-3-oxopropyl)phenyl dihydrogen phosphate]				MIC for E. coli A-1261 In the presence of an alkaline phosphatase (2 i.U./mL) (wild-type E. coli A-1261; alkaline phosphatase 2 i.U./mL): 1 µg/mL; MIC for E. coli A-1261 In the presence of an esterase (10 i.U./mL) (wild-type E. coli A-1261; esterase 10 i.U./mL): 16 µg/mL; MIC for E. coli A-1261 In the absence of alkaline phosphatase or esterase (wild-type E. coli A-1261; no alkaline phosphatase or esterase): 16 µg/mL
CN1CC(OC(=O)NCc2ccc(C#Cc3cc4n(c3)C(=O)N(CC[C@](C)(C(=O)NO)S(C)(=O)=O)C4)cc2)C1 [Example 27, 1-methylazetidin-3-yl (3R)-(4-((2-(4-(hydroxyamino)-3-methyl-3-(methylsulfonyl)-4-oxobutyl)-3-oxo-2,3-dihydro-1H-pyrrolo[1,2-c]imidazol-6-yl)ethynyl)benzyl)carbamate]	2 (≈ 3.59 µM)	4 (≈ 7.17 µM)	8 (≈ 14.3 µM)	
C[C@@](CCN1Cc2cc(C#Cc3ccc(COC(=O)N4CC(O)C4)cc3)cn2C1=O)(C(=O)NO)S(C)(=O)=O [Example 10, (3R)-4-((2-(4-(hydroxyamino)-3-methyl-3-(methylsulfonyl)-4-oxobutyl)-3-oxo-2,3-dihydro-1H-pyrrolo[1,2-c]imidazol-6-yl)ethynyl)benzyl 3-hydroxyazetidine-1-carboxylate]	0.25 (≈ 0.459 µM)	0.25 (≈ 0.459 µM)	1 (≈ 1.84 µM)	
CN1CCN(C(=O)OCc2ccc(C#Cc3cc4n(c3)C(=O)N(CC[C@](C)(C(=O)NO)S(C)(=O)=O)C4)cc2)CC1 [Example 17, (3R)-4-((2-(4-(hydroxyamino)-3-methyl-3-(methylsulfonyl)-4-oxobutyl)-3-oxo-2,3-dihydro-1H-pyrrolo[1,2-c]imidazol-6-yl)ethynyl)benzyl 4-methylpiperazine-1-carboxylate]	0.25 (≈ 0.437 µM)	0.5 (≈ 0.875 µM)	2 (≈ 3.5 µM)	
C[C@@](CCN1Cc2cc(C#CC#CC3CN([C@H]4C[C@@H](O)C4)C3)cn2C1=O)(C(=O)NO)S(C)(=O)=O [Example 91, (2R)—N-hydroxy-4-(6-((1-((1s,3s)-3-hydroxycyclobutyl)azetidin-3-yl)buta-1,3-diyn-1-yl)-3-oxo-1H-pyrrolo[1,2-c]imidazol-2(3H)-yl)-2-methyl-2-(methylsulfonyl)butanamide]				MIC for E. coli ATCC25922 (E. coli ATCC25922): 0.5 µg/mL; MIC for K. Pneumoniae A-651 (K. pneumoniae A-651): 0.5 µg/mL; MIC for P. aeruginosa ATCC27853 (P. aeruginosa ATCC27853): 1 µg/mL
CN(CCO)C(=O)OCc1ccc(C#Cc2cc3n(c2)C(=O)N(CC[C@](C)(C(=O)NO)S(C)(=O)=O)C3)cc1 [Example 11, (3R)-4-((2-(4-(hydroxyamino)-3-methyl-3-(methylsulfonyl)-4-oxobutyl)-3-oxo-2,3-dihydro-1H-pyrrolo[1,2-c]imidazol-6-yl)ethynyl)benzyl (2-hydroxyethyl)(methyl)carbamate]	0.5 (≈ 0.915 µM)	0.5 (≈ 0.915 µM)	2 (≈ 3.66 µM)	
CN1CCC(O)(C#CC#Cc2cc3n(c2)C(=O)N(CC[C@](C)(C(=O)NO)S(C)(=O)=O)C3)CC1 [Example 48, (2R)—N-hydroxy-4-(6-((4-hydroxy-1-methylpiperidin-4-yl)buta-1,3-diyn-1-yl)-3-oxo-1H-pyrrolo[1,2-c]imidazol-2(3H)-yl)-2-methyl-2-(methylsulfonyl)butanamide]	> 8	> 8	4 (≈ 8.39 µM)	
C[C@@](CCN1Cc2cc(C#Cc3ccc(CN4CC[C@H](O)[C@@H](F)C4)cc3)cn2C1=O)(C(=O)NO)S(C)(=O)=O (relative stereo) [Example 36, (2R)-4-(6-((4-(((3S*,4S*)-3-fluoro-4-hydroxypiperidin-1-yl)methyl)phenyl)ethynyl)-3-oxo-1H-pyrrolo[1,2-c]imidazol-2(3H)-yl)-N-hydroxy-2-methyl-2-(methylsulfonyl)butanamide]	0.25 (≈ 0.457 µM)	0.5 (≈ 0.915 µM)	1 (≈ 1.83 µM)	
C[C@@](CCN1Cc2cc(C#CC#CC3CNC3)cn2C1=O)(C(=O)NOC1CCCCO1)S(C)(=O)=O (stereo partly drawn) [Example 31, (2R)-4-(6-(azetidin-3-ylbuta-1,3-diyn-1-yl)-3-oxo-1H-pyrrolo[1,2-c]imidazol-2(3H)-yl)-2-methyl-2-(methylsulfonyl)-N-((tetrahydro-2H-pyran-2-yl)oxy)butanamide]				MIC for E. coli ATCC25922 (E. coli ATCC25922): 8 µg/mL; MIC for K. Pneumoniae A-651 (K. pneumoniae A-651): 8 µg/mL; MIC for P. aeruginosa ATCC27853 (P. aeruginosa ATCC27853): 1 µg/mL

Further lines, with some results ahead:

MIC (E. coli ATCC25922) [µg/mL]	MIC (K. pneumoniae A-651) [µg/mL]	MIC (P. aeruginosa ATCC27853) [µg/mL]	SMILES	further results
4 (≈ 7.54 µM)	> 8	8 (≈ 15.1 µM)	CN1CCC(C#Cc2ccc(-c3cc4n(c3)C(=O)N(CC[C@](C)(C(=O)NO)S(C)(=O)=O)C4)c(F)c2)CC1 [Example 87, (2R)-4-(6-(2-fluoro-4-((1-methylpiperidin-4-yl)ethynyl)phenyl)-3-oxo-1H-pyrrolo[1,2-c]imidazol-2(3H)-yl)-N-hydroxy-2-methyl-2-(methylsulfonyl)butanamide]	
0.063 (≈ 0.128 µM)	0.125 (≈ 0.255 µM)	2 (≈ 4.08 µM)	C[C@@](CCN1Cc2cc(C#CC#CC3CN(C4CSC4)C3)cn2C1=O)(C(=O)NO)S(C)(=O)=O [Example 75, (2R)—N-hydroxy-2-methyl-2-(methylsulfonyl)-4-(3-oxo-6-((1-(thietan-3-yl)azetidin-3-yl)buta-1,3-diyn-1-yl)-1H-pyrrolo[1,2-c]imidazol-2(3H)-yl)butanamide]	
0.125	0.25	2	C[C@@](CCN1Cc2cc(C#CC#CC3(F)CCN(C4CC4)C3)cn2C1=O)(C(=O)NO)S(C)(=O)=O (mixture of isomers) [Example 76, (2R)-4-(6-(((3RS)-1-cyclopropyl-3-fluoropyrrolidin-3-yl)buta-1,3-diyn-1-yl)-3-oxo-1H-pyrrolo[1,2-c]imidazol-2(3H)-yl)-N-hydroxy-2-methyl-2-(methylsulfonyl)butanamide]	
4 (≈ 7.71 µM)	4 (≈ 7.71 µM)	4 (≈ 7.71 µM)	C[C@@](CCN1Cc2cc(C#CC#C[C@H]3C[C@H](CO)N(C4COC4)C3)cn2C1=O)(C(=O)NO)S(C)(=O)=O [Example 100, (2R)—N-hydroxy-4-(6-(((3R,5R)-5-(hydroxymethyl)-1-(oxetan-3-yl)pyrrolidin-3-yl)buta-1,3-diyn-1-yl)-3-oxo-1H-pyrrolo[1,2-c]imidazol-2(3H)-yl)-2-methyl-2-(methylsulfonyl)butanamide]	
1 (≈ 2.16 µM)	1 (≈ 2.16 µM)	0.5 (≈ 1.08 µM)	CN1C[C@@H](C#CC#Cc2cc3n(c2)C(=O)N(CC[C@](C)(C(=O)NO)S(C)(=O)=O)C3)[C@@H]1CO [Example 95, (2R)—N-hydroxy-4-(6-(((2R,3R)-2-(hydroxymethyl)-1-methylazetidin-3-yl)buta-1,3-diyn-1-yl)-3-oxo-1H-pyrrolo[1,2-c]imidazol-2(3H)-yl)-2-methyl-2-(methylsulfonyl)butanamide]	
0.25 (≈ 0.512 µM)	0.5 (≈ 1.02 µM)	0.5 (≈ 1.02 µM)	C[C@@](CCN1Cc2cc(C#CC#CC3CN(C4CC(O)C4)C3)cn2C1=O)(C(=O)NO)S(C)(=O)=O (stereo partly drawn) [Example 69, (2R)—N-hydroxy-4-(6-((1-(3-hydroxycyclobutyl)azetidin-3-yl)buta-1,3-diyn-1-yl)-3-oxo-1H-pyrrolo[1,2-c]imidazol-2(3H)-yl)-2-methyl-2-(methylsulfonyl)butanamide]	

From patent US10314823B2, “Substituted 1,2-dihydro-3H-pyrrolo[1,2-c]imidazol-3-one antibacterial compounds” (IDORSIA PHARMACEUTICALS LTD, priority 2015, dated 2019)
